Data taken from the CheMixHub viscosity set.
± gives the uncertainty stated by the source.

Experiment: xn = mol fraction of the nth substance listed
Settings: 101 kPa

## CC(=O)[O-].C[N+]1(CC2CO2)CCCC1=O (stereo not given) + O
293.15 K, x1 = 0.0346
  viscosity: 2.26 ± 0.05 mPa·s
293.15 K, x1 = 0.0775
  viscosity: 4.27 ± 0.09 mPa·s
293.15 K, x1 = 0.1028
  viscosity: 5.4 ± 0.11 mPa·s
293.15 K, x1 = 0.2008
  viscosity: 7.75 ± 0.16 mPa·s
293.15 K, x1 = 0.3054
  viscosity: 8.32 ± 0.17 mPa·s
293.15 K, x1 = 0.4045
  viscosity: 8.17 ± 0.17 mPa·s
293.15 K, x1 = 0.5113
  viscosity: 7.82 ± 0.16 mPa·s
293.15 K, x1 = 0.6049
  viscosity: 7.47 ± 0.16 mPa·s
293.15 K, x1 = 0.7052
  viscosity: 7.16 ± 0.15 mPa·s
293.15 K, x1 = 0.8048
  viscosity: 6.92 ± 0.15 mPa·s
293.15 K, x1 = 0.9047
  viscosity: 6.73 ± 0.15 mPa·s
298.15 K, x1 = 0.0346
  viscosity: 1.94 ± 0.04 mPa·s
298.15 K, x1 = 0.0775
  viscosity: 3.56 ± 0.07 mPa·s
298.15 K, x1 = 0.1028
  viscosity: 4.45 ± 0.09 mPa·s
298.15 K, x1 = 0.2008
  viscosity: 6.28 ± 0.13 mPa·s
298.15 K, x1 = 0.3054
  viscosity: 6.76 ± 0.14 mPa·s
298.15 K, x1 = 0.4045
  viscosity: 6.7 ± 0.14 mPa·s
298.15 K, x1 = 0.5113
  viscosity: 6.47 ± 0.14 mPa·s
298.15 K, x1 = 0.6049
  viscosity: 6.23 ± 0.13 mPa·s
298.15 K, x1 = 0.7052
  viscosity: 6.01 ± 0.13 mPa·s
298.15 K, x1 = 0.8048
  viscosity: 5.83 ± 0.13 mPa·s
298.15 K, x1 = 0.9047
  viscosity: 5.68 ± 0.13 mPa·s
303.15 K, x1 = 0.0346
  viscosity: 1.67 ± 0.03 mPa·s
303.15 K, x1 = 0.0775
  viscosity: 3.01 ± 0.06 mPa·s
303.15 K, x1 = 0.1028
  viscosity: 3.71 ± 0.08 mPa·s
303.15 K, x1 = 0.2008
  viscosity: 5.18 ± 0.11 mPa·s
303.15 K, x1 = 0.3054
  viscosity: 5.57 ± 0.12 mPa·s
303.15 K, x1 = 0.4045
  viscosity: 5.56 ± 0.12 mPa·s
303.15 K, x1 = 0.5113
  viscosity: 5.41 ± 0.11 mPa·s
303.15 K, x1 = 0.6049
  viscosity: 5.23 ± 0.11 mPa·s
303.15 K, x1 = 0.7052
  viscosity: 5.1 ± 0.11 mPa·s
303.15 K, x1 = 0.8048
  viscosity: 4.97 ± 0.11 mPa·s
303.15 K, x1 = 0.9047
  viscosity: 4.87 ± 0.11 mPa·s
308.15 K, x1 = 0.0346
  viscosity: 1.46 ± 0.03 mPa·s
308.15 K, x1 = 0.0775
  viscosity: 2.6 ± 0.05 mPa·s
308.15 K, x1 = 0.1028
  viscosity: 3.13 ± 0.06 mPa·s
308.15 K, x1 = 0.2008
  viscosity: 4.33 ± 0.09 mPa·s
308.15 K, x1 = 0.3054
  viscosity: 4.67 ± 0.1 mPa·s
308.15 K, x1 = 0.4045
  viscosity: 4.69 ± 0.1 mPa·s
308.15 K, x1 = 0.5113
  viscosity: 4.6 ± 0.1 mPa·s
308.15 K, x1 = 0.6049
  viscosity: 4.47 ± 0.1 mPa·s
308.15 K, x1 = 0.7052
  viscosity: 4.38 ± 0.09 mPa·s
308.15 K, x1 = 0.8048
  viscosity: 4.28 ± 0.09 mPa·s
308.15 K, x1 = 0.9047
  viscosity: 4.21 ± 0.09 mPa·s
313.15 K, x1 = 0.0346
  viscosity: 1.29 ± 0.03 mPa·s
313.15 K, x1 = 0.0775
  viscosity: 2.28 ± 0.05 mPa·s
313.15 K, x1 = 0.1028
  viscosity: 2.67 ± 0.06 mPa·s
313.15 K, x1 = 0.2008
  viscosity: 3.63 ± 0.07 mPa·s
313.15 K, x1 = 0.3054
  viscosity: 3.95 ± 0.08 mPa·s
313.15 K, x1 = 0.4045
  viscosity: 4 ± 0.08 mPa·s
313.15 K, x1 = 0.5113
  viscosity: 3.94 ± 0.08 mPa·s
313.15 K, x1 = 0.6049
  viscosity: 3.85 ± 0.08 mPa·s
313.15 K, x1 = 0.7052
  viscosity: 3.79 ± 0.08 mPa·s
313.15 K, x1 = 0.8048
  viscosity: 3.72 ± 0.08 mPa·s
313.15 K, x1 = 0.9047
  viscosity: 3.67 ± 0.08 mPa·s

## CC1(C)S[C@@H]2[C@H](NC(=O)[C@H](N)c3ccc(O)cc3)C(=O)N2[C@H]1C(=O)O + O
305.15 K, x1 = 9e-06
  viscosity: 0.7741 ± 0.016 mPa·s
305.15 K, x1 = 1.8e-05
  viscosity: 0.7672 ± 0.016 mPa·s
305.15 K, x1 = 2e-05
  viscosity: 0.7642 ± 0.02 mPa·s
305.15 K, x1 = 3.2e-05
  viscosity: 0.7659 ± 0.02 mPa·s
305.15 K, x1 = 3.6e-05
  viscosity: 0.7708 ± 0.016 mPa·s
305.15 K, x1 = 5e-05
  viscosity: 0.7668 ± 0.02 mPa·s
305.15 K, x1 = 6.8e-05
  viscosity: 0.7686 ± 0.02 mPa·s
310.15 K, x1 = 9e-06
  viscosity: 0.7042 ± 0.016 mPa·s
310.15 K, x1 = 1.8e-05
  viscosity: 0.7023 ± 0.016 mPa·s
310.15 K, x1 = 2e-05
  viscosity: 0.6984 ± 0.018 mPa·s
310.15 K, x1 = 3.2e-05
  viscosity: 0.6991 ± 0.018 mPa·s
310.15 K, x1 = 3.6e-05
  viscosity: 0.7032 ± 0.016 mPa·s
310.15 K, x1 = 5e-05
  viscosity: 0.7014 ± 0.018 mPa·s
310.15 K, x1 = 6.8e-05
  viscosity: 0.7026 ± 0.018 mPa·s
315.15 K, x1 = 9e-06
  viscosity: 0.6458 ± 0.016 mPa·s
315.15 K, x1 = 1.8e-05
  viscosity: 0.6448 ± 0.016 mPa·s
315.15 K, x1 = 2e-05
  viscosity: 0.6386 ± 0.017 mPa·s
315.15 K, x1 = 3.2e-05
  viscosity: 0.6392 ± 0.017 mPa·s
315.15 K, x1 = 3.6e-05
  viscosity: 0.6469 ± 0.016 mPa·s
315.15 K, x1 = 5e-05
  viscosity: 0.6401 ± 0.017 mPa·s
315.15 K, x1 = 6.8e-05
  viscosity: 0.6421 ± 0.017 mPa·s

## CCCC(N)=O + O
298.15 K, x1 = 0.00213
  viscosity: 0.906 ± 0.18 mPa·s
298.15 K, x1 = 0.0179
  viscosity: 1.122 ± 0.23 mPa·s
298.15 K, x1 = 0.0403
  viscosity: 1.458 ± 0.29 mPa·s
298.15 K, x1 = 0.04319
  viscosity: 1.511 ± 0.3 mPa·s
